# Test results as given in patent US9409908B2 (priority 2012, dated 2016).
# Counter-ions that a name gives are not always drawn. Like-named read-outs stand apart in the source and are kept apart here.
# Key:
# [1] = rcm bond, Grubbs II, 40.0 °C
# [2] = from C=CC[C@H](NC(=O)OC(C)(C)C)c1cc(-c2ccncc2NC(=O)[C@H](C)C=C)ccn1; rcm bond; 12-membered ring; Grubbs II/pTsOH; CH2Cl2; 5.2 mM; 40.0 °C
# [3] = biological target: purified human Factor XIa (Homo sapiens (Human), UniProt P03951); experiment: biochemical; assay type: biochemical; details: read-out: Factor XIa Ki
# [4] = biological target: purified human plasma kallikrein (Homo sapiens (Human), UniProt P03952); experiment: biochemical; assay type: biochemical; details: read-out: Plasma Kallikrein Ki
# Sequence of purified human plasma kallikrein (P03952 whole entry, looked up): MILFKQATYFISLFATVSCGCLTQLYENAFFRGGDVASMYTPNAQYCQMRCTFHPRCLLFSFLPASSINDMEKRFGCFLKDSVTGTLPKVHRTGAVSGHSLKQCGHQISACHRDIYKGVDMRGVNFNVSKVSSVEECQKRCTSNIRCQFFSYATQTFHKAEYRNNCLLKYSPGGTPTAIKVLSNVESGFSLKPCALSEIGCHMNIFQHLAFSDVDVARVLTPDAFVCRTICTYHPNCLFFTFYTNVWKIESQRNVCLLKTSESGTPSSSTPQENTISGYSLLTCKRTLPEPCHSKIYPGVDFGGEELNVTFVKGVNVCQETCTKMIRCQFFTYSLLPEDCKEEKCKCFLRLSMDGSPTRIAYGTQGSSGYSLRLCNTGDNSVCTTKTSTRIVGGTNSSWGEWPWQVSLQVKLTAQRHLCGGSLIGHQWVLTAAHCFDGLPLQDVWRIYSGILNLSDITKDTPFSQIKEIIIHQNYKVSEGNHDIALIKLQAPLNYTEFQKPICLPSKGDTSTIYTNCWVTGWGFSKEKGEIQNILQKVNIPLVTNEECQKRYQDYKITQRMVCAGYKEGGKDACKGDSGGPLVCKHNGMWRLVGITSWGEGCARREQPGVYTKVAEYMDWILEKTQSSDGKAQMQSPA
# Sequence of purified human plasma kallikrein (P03952 whole entry partner, looked up): as the sequence (P03952 whole entry, looked up) above
# Sequence of purified human Factor XIa (P03951 whole entry, looked up): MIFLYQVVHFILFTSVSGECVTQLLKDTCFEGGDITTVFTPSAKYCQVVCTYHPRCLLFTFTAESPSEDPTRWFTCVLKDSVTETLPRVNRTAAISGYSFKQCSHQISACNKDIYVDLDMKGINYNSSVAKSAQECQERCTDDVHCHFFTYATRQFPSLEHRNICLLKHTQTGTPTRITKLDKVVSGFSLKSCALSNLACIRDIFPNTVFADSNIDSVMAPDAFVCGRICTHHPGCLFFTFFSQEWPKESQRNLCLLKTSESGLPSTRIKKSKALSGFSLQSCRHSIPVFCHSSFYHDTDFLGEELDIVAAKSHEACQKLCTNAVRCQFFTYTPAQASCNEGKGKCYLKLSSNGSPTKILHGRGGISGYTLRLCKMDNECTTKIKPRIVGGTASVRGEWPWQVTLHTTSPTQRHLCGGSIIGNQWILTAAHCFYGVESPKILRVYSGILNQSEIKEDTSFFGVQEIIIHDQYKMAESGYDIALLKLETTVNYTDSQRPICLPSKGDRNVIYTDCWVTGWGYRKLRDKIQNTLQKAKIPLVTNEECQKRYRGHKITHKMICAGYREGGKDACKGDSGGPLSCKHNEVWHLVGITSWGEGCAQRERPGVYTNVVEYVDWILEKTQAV
# Sequence of purified human Factor XIa (P03951 whole entry partner, looked up): as the sequence (P03951 whole entry, looked up) above
SMILES,Ki [3] [nM],Ki [4] [nM],also measured
COC(=O)Nc1ccc2c(c1)C(=O)NC/C=C/C[C@H](NC(=O)OC(C)(C)C)c1cc-2ccn1,,,"ring closure, yield of all isomers ([1]; from C=CCNC(=O)c1cc(NC(=O)OC)ccc1-c1ccnc([C@H](CC=C)NC(=O)OC(C)(C)C)c1, DCM, […], 3.0 h): 39.4%"
COC(=O)Nc1ccc2c(c1)NC(=O)[C@H](C)/C=C/C[C@H](NC(=O)OC(C)(C)C)c1nc-2cn1COCC[Si](C)(C)C,,,"ring closure, yield of all isomers ([1]; from C=CC[C@H](NC(=O)OC(C)(C)C)c1nc(-c2ccc(NC(=O)OC)cc2NC(=O)[C@H](C)C=C)cn1COCC[Si](C)(C)C, dichloromethane, 9.73 mM, 21.5 h): 74%"
C[C@@H]1/C=C/C[C@H](NC(=O)OC(C)(C)C)c2cc(ccn2)-c2ccccc2NC1=O,,,"ring closure, yield of all isomers ([1]; from C=CC[C@H](NC(=O)OC(C)(C)C)c1cc(-c2ccccc2NC(=O)[C@H](C)C=C)ccn1, dichloromethane, 11.8 mM, 4.5 h): 78%"
C[C@@H]1/C=C/C[C@H](NC(=O)OC(C)(C)C)c2cc(ccn2)-c2ccncc2NC1=O,,,"ring closure, yield of all isomers ([1]; from C=CC[C@H](NC(=O)OC(C)(C)C)c1cc(-c2ccncc2NC(=O)[C@H](C)C=C)ccn1, CH2Cl2, 5.06 mM, 24.0 h): 7.3%; ring closure, yield after HPLC [2]: 7.3%"
"C[C@@H]1CCC[C@H](N2CCC(c3c(-n4cnnn4)ccc(Cl)c3F)=CC2=O)c2cc(ccn2)-c2cc(F)c(F)cc2NC1=O [Example 215, (10R,14S)-14-{4-[3-chloro-2-fluoro-6-(1H-1,2,3,4-tetrazol-1-yl)phenyl]-6-oxo-1,2,3,6-tetrahydropyridin-1-yl}-4,5-difluoro-10-methyl-8,16-diazatricyclo[13.3.1.0^2,7]nonadeca-1(19),2(7),3,5,15,17-hexaen-9-one, TFA salt]",0.07,3.61,
"COC(=O)Nc1ccc2c(c1)C(=O)NCC/C=C/C[C@H](N1CCC(c3c(F)ccc(Cl)c3F)=CC1=O)c1cc-2ccn1 [Example 216, Methyl N-[(12E,15S)-15-[4-(3-chloro-2,6-difluorophenyl)-6-oxo-1,2,3,6-tetrahydropyridin-1-yl]-8-oxo-9,17-diazatricyclo[14.3.1.0^2,7]icosa-1(20),2(7),3,5,12,16,18-heptaen-5-yl]carbamate, TFA salt]",264,212,
"COC(=O)Nc1ccc2c(c1)NC(=O)CCCCC[C@H](N1CCC(c3c(F)ccc(Cl)c3F)=CC1=O)c1cc-2ccn1 [Example 219, Methyl N-[(15S)-15-[4-(3-chloro-2,6-difluorophenyl)-6-oxo-1,2,3,6-tetrahydropyridin-1-yl]-9-oxo-8,17-diazatricyclo[14.3.1.0^2,7]icosa-1(20),2(7),3,5,16,18-hexaen-5-yl]carbamate, TFA salt]",6.61,6.85,
"Cc1[nH]c2nc1-c1ccccc1NC(=O)[C@H](C)CCC[C@@H]2N1CCC(c2c(F)ccc(Cl)c2F)=CC1=O [Example 220, (10R,14S)-14-[4-(3-chloro-2,6-difluorophenyl)-6-oxo-1,2,3,6-tetrahydropyridin-1-yl]-10,17-dimethyl-8,16,18-triazatricyclo[13.2.1.0^2,7]octadeca-1(17),2,4,6,15(18)-pentaen-9-one, TFA salt]",21.7,50.2,
"C[C@@H]1CCC[C@H](N2CCC(c3c(F)ccc(Cl)c3F)=CC2=O)c2cc(ccn2)-c2cn[nH]c2NC1=O [Example 221, 13-[4-(3-chloro-2,6-difluorophenyl)-6-oxo-1,2,3,6-tetrahydropyridin-1-yl]-9-methyl-4,5,7,15-tetraazatricyclo[12.3.1.0^2,6]octadeca-1(18),2(6),3,14,16-pentaen-8-one, 2TFA salt]",> 417,1320,
